The results in this text go back to PubChem BioAssay (NCI).

Test systems include HT29 colon; SF-268 CNS; SNB-75 CNS; SK-MEL-5 melanoma; U251 CNS; HS 578T breast; HCC-2998 colon; OVCAR-5 ovarian; M14 melanoma; CCRF-CEM leukemia; SF-295 CNS; MALME-3M melanoma; UO-31 renal; IGROV1 ovarian; RPMI-8226 leukemia.
Experiment in all cases: DTP human tumour cell line panel, 48 h

Each structure is given as a SMILES string.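 Compound exposure: 48 hours, 5 concentrations, 96-well plates. TGI marks complete inhibition of growth.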

What is called TGI is the concentration giving total growth inhibition. A higher TGI goes with lower sensitivity of the cells. For the compound `NC(N)=N/N=C/c1c(-c2ccc(Cl)cc2)nc2sccn12`, the TGI came to 3.23 µM in the experiment on HT29 colon; 3.72 µM in the experiment on SF-268 CNS; 3.61 µM with SNB-75 CNS; 3.19 µM in the experiment on SK-MEL-5 melanoma; 3.59 µM in the experiment on U251 CNS; 37.6 µM with HS 578T breast. Also, the TGI in the experiment with HCC-2998 colon worked out at 2.74 µM; in the experiment with OVCAR-5 ovarian, 7.03 µM; in the experiment on M14 melanoma, 3.17 µM; with CCRF-CEM leukemia, 4.23 µM; in the experiment on SF-295 CNS, 3.13 µM; with MALME-3M melanoma, 4.95 µM. Further, the TGI was 7.49 µM in the experiment with UO-31 renal, 4.24 µM in the experiment on IGROV1 ovarian and 7.04 µM in the experiment with RPMI-8226 leukemia.
